Measurements taken from patent publication US20250171437A1 (Agios Pharmaceuticals,Inc., priority 2022, published 2025).

Molecular target: T1, human PAH with the R408W mutation (A375 R408W cells) (Homo sapiens, UniProt P00439, R408W)
T1 construct: expressed in transfected cells
T1 sequence (P00439 1-452 R408W): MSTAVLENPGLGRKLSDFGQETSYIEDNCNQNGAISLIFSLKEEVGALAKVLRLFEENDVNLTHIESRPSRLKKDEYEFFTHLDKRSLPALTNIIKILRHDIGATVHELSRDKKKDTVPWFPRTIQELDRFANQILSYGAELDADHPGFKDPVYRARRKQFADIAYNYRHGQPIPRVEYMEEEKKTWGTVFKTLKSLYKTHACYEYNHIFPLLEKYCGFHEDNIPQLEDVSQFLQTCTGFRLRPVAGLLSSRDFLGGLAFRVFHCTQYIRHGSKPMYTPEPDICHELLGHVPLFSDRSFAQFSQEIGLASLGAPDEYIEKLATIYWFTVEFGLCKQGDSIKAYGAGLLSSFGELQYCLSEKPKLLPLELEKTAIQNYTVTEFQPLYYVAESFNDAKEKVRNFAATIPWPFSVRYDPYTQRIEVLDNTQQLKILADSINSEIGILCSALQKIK
Test: Cell Based Phenylalanine Flux Assay
Details: A375 R408W cells; 24 hrs with compound, then 20 μM sepiapterin and 800 μM 13C9,15N-Phenylalanine for 4 hours; 13C-Tyrosine by LC-MS; average where tested multiple times
How it was run: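 Puromycin-selected A375 line, lentiviral hPAH R408W; cmpd 24 h, 37 °C, 5% CO2, 0.5% DMSO; then 20 μM sepiapterin + 800 μM 13C9,15N-Phe, 4 h; media extracted in 80% MeCN; 13C-Tyr by LC-MS; AC50 from 10-pt curves.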

| Structure (SMILES) | AC50 |
| --- | --- |
| O=C(c1nnc(-c2ccn(C(F)F)n2)o1)N1CCc2[nH]cnc2[C@@H]1c1nc2c(F)ccc(F)c2o1 [Example 816, (R)-(4-(4,7-difluorobenzo[d]oxazol-2-yl)-6,7-dihydro-1H-imidazo[4,5-c]pyridin-5(4H)-yl)(5-(1-(difluoromethyl)-1H-pyrazol-3-yl)-1,3,4-oxadiazol-2-yl)methanone] | ≤ 500 nM |
| CC(C)(O)c1nc(C(F)F)c(C(=O)N2CCc3[nH]cnc3[C@@H]2c2nc3c(F)cccc3o2)o1 [Example 200, (R)-(4-(difluoromethyl)-2-(2-hydroxypropan-2-yl)oxazol-5-yl)(4-(4-fluorobenzo[d]oxazol-2-yl)-6,7-dihydro-1H-imidazo[4,5-c]pyridin-5(4H)-yl)methanone] | 1000 to 5000 nM |
| Cn1nc(Cl)nc1C(=O)N1CCc2[nH]cnc2[C@H]1c1nc2c(F)cccc2o1 [Example 277, (S)-(3-chloro-1-methyl-1H-1,2,4-triazol-5-yl)(4-(4-fluorobenzo[d]oxazol-2-yl)-6,7-dihydro-1H-imidazo[4,5-c]pyridin-5(4H)-yl)methanone] | 500 to 1000 nM |
| O=C(c1oc(N2CCOCC2)nc1C(F)F)N1CCc2[nH]cnc2[C@@H]1c1nc2cc(F)ccc2o1 [Example 414, (R)-(4-(difluoromethyl)-2-morpholinooxazol-5-yl)(4-(5-fluorobenzo[d]oxazol-2-yl)-6,7-dihydro-1H-imidazo[4,5-c]pyridin-5(4H)-yl)methanone] | 1000 to 5000 nM |
| O=C(c1oc(-c2ncccn2)nc1C(F)F)N1CCc2[nH]cnc2[C@@H]1c1nc2cccc(F)c2o1 [Example 668, (R)-(4-(difluoromethyl)-2-(pyrimidin-2-yl)oxazol-5-yl)(4-(7-fluorobenzo[d]oxazol-2-yl)-6,7-dihydro-1H-imidazo[4,5-c]pyridin-5(4H)-yl)methanone] | ≤ 500 nM |
| Cc1ccc2oc([C@H]3c4nc[nH]c4CCN3C(=O)c3nnc(-c4ccn(C)n4)o3)nc2c1 [Example 390, (R)-(5-(1-methyl-1H-pyrazol-3-yl)-1,3,4-oxadiazol-2-yl)(4-(5-methylbenzo[d]oxazol-2-yl)-6,7-dihydro-1H-imidazo[4,5-c]pyridin-5(4H)-yl)methanone] | 1000 to 5000 nM |
| O=C(c1ccnn1C(F)F)N1CCc2[nH]cnc2[C@@H]1c1nc2cccc(F)c2o1 [Example 196, (R)-(1-(difluoromethyl)-1H-pyrazol-5-yl)(4-(7-fluorobenzo[d]oxazol-2-yl)-6,7-dihydro-1H-imidazo[4,5-c]pyridin-5(4H)-yl)methanone] | 1000 to 5000 nM |
| O=C(c1oc(N2CCC(F)CC2)nc1C(F)F)N1CCc2[nH]cnc2[C@@H]1c1nc2cccc(F)c2o1 [Example 675, (R)-(4-(difluoromethyl)-2-(4-fluoropiperidin-1-yl)oxazol-5-yl)(4-(7-fluorobenzo[d]oxazol-2-yl)-6,7-dihydro-1H-imidazo[4,5-c]pyridin-5(4H)-yl)methanone] | ≤ 500 nM |
| O=C(CC1CC(F)C1)N1CCc2[nH]cnc2[C@@H]1c1nc2cc(F)ccc2o1 (stereo partly drawn) [Example 60, (R)-1-(4-(5-fluorobenzo[d]oxazol-2-yl)-6,7-dihydro-1H-imidazo[4,5-c]pyridin-5(4H)-yl)-2-(3-fluorocyclobutyl)ethanone] | 1000 to 5000 nM |
| O=C(c1cnn2cc(N3CCOCC3)ccc12)N1CCc2[nH]cnc2[C@H]1c1nc2cccc(F)c2o1 [Example 365, (S)-(4-(7-fluorobenzo[d]oxazol-2-yl)-6,7-dihydro-1H-imidazo[4,5-c]pyridin-5(4H)-yl)(6-morpholinopyrazolo[1,5-a]pyridin-3-yl)methanone] | 500 to 1000 nM |
| CC(O)c1nc(Cl)c(C(=O)N2CCc3[nH]cnc3[C@H]2c2nc3cc(F)ccc3o2)o1 (single isomer, unassigned) [Example 235] | 1000 to 5000 nM |
| O=C(c1cnco1)N1CCc2[nH]cnc2[C@H]1c1nc2ccccc2o1 [Example 547, (S)-(4-(benzo[d]oxazol-2-yl)-6,7-dihydro-1H-imidazo[4,5-c]pyridin-5(4H)-yl)(oxazol-5-yl)methanone] | 500 to 1000 nM |
| O=C(c1ocnc1C(F)(F)F)N1CCc2[nH]cnc2[C@@H]1c1nc2ccccc2o1 [Example 798, (R)-(4-(benzo[d]oxazol-2-yl)-6,7-dihydro-1H-imidazo[4,5-c]pyridin-5(4H)-yl)(4-(trifluoromethyl)oxazol-5-yl)methanone] | 500 to 1000 nM |
| COc1ccc2c(C(=O)N3CCc4[nH]cnc4[C@H]3c3nc4cccc(F)c4o3)cnn2c1 [Example 325, (S)-(4-(7-fluorobenzo[d]oxazol-2-yl)-6,7-dihydro-1H-imidazo[4,5-c]pyridin-5(4H)-yl)(6-methoxypyrazolo[1,5-a]pyridin-3-yl)methanone] | ≤ 500 nM |
| Cc1ncoc1C(=O)N1CCc2[nH]cnc2[C@H]1c1nc2ccc(F)cc2o1 [Example 597, (S)-(4-(6-fluorobenzo[d]oxazol-2-yl)-6,7-dihydro-1H-imidazo[4,5-c]pyridin-5(4H)-yl)(4-methyloxazol-5-yl)methanone] | ≤ 500 nM |
| CC(C)(O)c1nc(C(F)F)c(C(=O)N2CCc3[nH]cnc3[C@H]2c2nc3cc(OC(F)(F)F)ccc3o2)o1 [Example 351, (S)-(4-(difluoromethyl)-2-(2-hydroxypropan-2-yl)oxazol-5-yl)(4-(5-(trifluoromethoxy)benzo[d]oxazol-2-yl)-6,7-dihydro-1H-imidazo[4,5-c]pyridin-5(4H)-yl)methanone] | ≤ 500 nM |
| COc1cccc2oc([C@@H]3c4nc[nH]c4CCN3C(=O)c3oc(C(C)(C)O)nc3C(F)F)nc12 [Example 427, (S)-(4-(difluoromethyl)-2-(2-hydroxypropan-2-yl)oxazol-5-yl)(4-(4-methoxybenzo[d]oxazol-2-yl)-6,7-dihydro-1H-imidazo[4,5-c]pyridin-5(4H)-yl)methanone] | ≤ 500 nM |
| Cc1ccc2oc([C@@H]3c4nc[nH]c4CCN3C(=O)c3ncnn3C)nc2c1 [Example 745, (S)-(1-methyl-1H-1,2,4-triazol-5-yl)(4-(5-methylbenzo[d]oxazol-2-yl)-6,7-dihydro-1H-imidazo[4,5-c]pyridin-5(4H)-yl)methanone] | 500 to 1000 nM |
| Cn1ccc(-c2nnc(C(=O)N3CCc4[nH]cnc4[C@H]3c3nc4c(F)cccc4o3)o2)n1 [Example 379, (S)-(4-(4-fluorobenzo[d]oxazol-2-yl)-1,4,6,7-tetrahydro-5H-imidazo[4,5-c]pyridin-5-yl)(5-(1-methyl-1H-pyrazol-3-yl)-1,3,4-oxadiazol-2-yl)methanone] | ≤ 500 nM |
| Cc1nc([C@@H](C)O)oc1C(=O)N1CCc2[nH]cnc2[C@H]1c1nc2cccc(F)c2o1 [Example 217, ((S)-4-(7-fluorobenzo[d]oxazol-2-yl)-6,7-dihydro-1H-imidazo[4,5-c]pyridin-5(4H)-yl)(2-((R)-1-hydroxyethyl)-4-methyloxazol-5-yl)methanone] | ≤ 500 nM |
| COc1cccc2nc([C@@H]3c4nc[nH]c4CCN3C(=O)c3cc(C)nn3C)oc12 [Example 821, (S)-(1,3-dimethyl-1H-pyrazol-5-yl)(4-(7-methoxybenzo[d]oxazol-2-yl)-6,7-dihydro-1H-imidazo[4,5-c]pyridin-5(4H)-yl)methanone] | ≤ 500 nM |
| CC(O)c1nc(Br)c(C(=O)N2CCc3[nH]cnc3[C@@H]2c2nc3cc(F)ccc3o2)o1 (single isomer, unassigned) [Example 223] | 1000 to 5000 nM |
| CC(C)(O)c1nc(C(F)(F)F)c(C(=O)N2CCc3[nH]cnc3[C@@H]2c2nc3cc(F)ccc3o2)o1 [Example 46, (R)-(4-(5-fluorobenzo[d]oxazol-2-yl)-6,7-dihydro-1H-imidazo[4,5-c]pyridin-5(4H)-yl)(2-(2-hydroxypropan-2-yl)-4-(trifluoromethyl)oxazol-5-yl)methanone] | ≤ 500 nM |

Same assay, conditions: A375 cells expressing R408W PAH; 24 hrs with compound, then 20 μM sepiapterin and 800 μM 13C9,15N-Phenylalanine for 4 hours; 13C-Tyrosine by LC-MS; average where tested multiple times

| Structure (SMILES) | AC50 |
| --- | --- |
| COCCCc1ccc2c(C(=O)N3CCc4[nH]cnc4C3c3nc4cc(F)ccc4o3)cnn2c1 (stereo not shown) | 1000 to 5000 nM |
| O=C(c1oc(C2CCN2)nc1C(F)F)N1CCc2[nH]cnc2C1c1nc2cc(F)ccc2o1 (stereo not shown) | 1000 to 5000 nM |
| O=C(CCc1ncco1)N1CCc2[nH]cnc2C1c1nc2cc(F)ccc2o1 (stereo not shown) | 1000 to 5000 nM |
| O=C(c1cn[nH]c1Cl)N1CCc2[nH]cnc2C1c1nc2cc(F)ccc2o1 (stereo not shown) | 1000 to 5000 nM |
| Cn1cncc1-c1nnc(C(=O)N2CCc3[nH]cnc3C2c2nc3c(F)ccc(F)c3o2)o1 (stereo not shown) | ≥ 5000 nM |
| Cc1nc(C(=O)N2CCc3[nH]cnc3C2c2nc3c(F)cccc3o2)n(C)n1 (stereo not shown) | 1000 to 5000 nM |
| Cn1nc(C(F)F)nc1C(=O)N1CCc2[nH]cnc2C1c1nc2c(F)cccc2o1 (stereo not shown) | 1000 to 5000 nM |
| O=C(c1nccs1)N1CCc2[nH]cnc2C1c1nc2ccc(Br)cc2o1 (stereo not shown) | 1000 to 5000 nM |
| Cn1ncc(C(=O)N2CCc3[nH]cnc3C2c2nc3cc(F)ccc3o2)c1C(F)F (stereo not shown) | ≥ 5000 nM |
| Cn1nc(C(F)F)nc1C(=O)N1CCc2[nH]cnc2C1c1nc2c(F)c(F)ccc2o1 (stereo not shown) | 1000 to 5000 nM |
| Nc1cc(C(=O)N2CCc3[nH]cnc3C2c2nc3cc(F)ccc3o2)n(C(F)F)n1 (stereo not shown) | 1000 to 5000 nM |
| Cn1nc(C(C)(C)C)cc1C(=O)N1CCc2[nH]cnc2C1c1nc2ccccc2o1 (stereo not shown) | 1000 to 5000 nM |
| Cc1cccc2nc(C3c4nc[nH]c4CCN3C(=O)c3cnn4cc(N5CCC(O)CC5)ccc34)oc12 (stereo not shown) | 1000 to 5000 nM |
| O=C(c1cnn(-c2ccccn2)c1Cl)N1CCc2[nH]cnc2C1c1nc2cc(F)ccc2o1 (stereo not shown) | ≥ 5000 nM |
